Where two headings read alike, the source gives them in different places. One block for each compound: values may come before it.
Legend:
[1] = IV pharmacokinetics in male SD rats; format: in vivo, rat; conditions: for clearance: male, Sprague-Dawley, rat, plasma, iv
Procedure: Pharmacokinetic parameters of some examples were evaluated in male Sprague Dawley (SD) rats after intravenous (IV) and oral (PO) dosing. Male SD rats (5-6 weeks of age) were fasted for 12 hours before administration of the compound of interest. Animals were allowed access to food 2 h after dosing and water was given ad libitum. Except for the compound of Example 13, pharmacokinetic experiments comparing deuterium containing and non-deuterium containing compounds were performed at the same time using the same cohort of animals. The pharmacokinetic properties of the compound of Example 13 were evaluated separately and compared to previously generated data.
For IV dosing, a 0.5 mg/mL solution of the test compound was prepared in a vehicle consisting of 5% DMSO, 5% Cremophore, 90% normal saline. For a 1 mpk dose, 2 mL/kg of this dosing vehicle was administered to each rat by bolus injection into the tail vein. For lower doses, the dosing solution was diluted with the appropriate amount of vehicle. Example 3 was evaluated at 3 mpk by preparing a 1.5 mg/mL solution in the same vehicle and dosing 2 mL/kg. Blood samples from each animal was collected in di-sodium EDTA coated containers at 0.12, 0.25, 0.5, 1.0, 2.0, 4.0, 8.0 and 24.0 hours after dosing. Plasma was separated from the blood samples within 15 minutes following collection and stored at −20±5° C. before analysis.
A standard curve was generated from a stock solution of the test compound with known concentration in methanol. Working solutions having known concentrations ranging from 5-20,000 ng/mL were prepared from the stock solution by dilution with methanol:water (80:20 v/v). 5 uL of the working solutions were added to 45 uL of blank rat plasma to provide standard samples for analysis.
Plasma samples collected from rats after dosing were allowed to reach room temperature. A 50 uL aliquot of each plasma sample and the standard curve plasma samples were treated with 200 uL of acetonitrile containing an internal standard (100 ng/mL; warfarin/diclofenac) and mixed well. The samples were vortexed for 5 minutes followed by centrifugation for 5 minutes at 14000 rpm at 4° C. The supernatant (10 uL) was analyzed by LC-MS/MS (LC: Shimadzu SIL HTc, MS: MDS Sciex API-5500 & 4000 using 75%/25% acetonitrile/0.2% formic acid in Milli-Q water, flow rate: 1.0 mL/min, run time 3 minutes, Atlantis dC18(50×4.6 mm, 3 um; Waters®)) and the concentrations of the test compound in the plasma samples collected from rats at each time point were determined by comparison to the standard curve samples.
Pharmacokinetic parameters were calculated from the plasma concentrations at each time point using Phoenix WinNonlin (Version 7.0) by the non-compartmental analysis (NCA) method. Clearance values are reported as mL/min/kg. AUC values are reported as ng·h/mL.

[2] = test system: minipig hepatocytes; test: In vitro metabolite profile in minipig hepatocytes; format: in vitro ADME; set-up: key to UV % at 280-290 nm or observed (+ or --), metabolite M532b (Hydroxylation) / UV % at 280-290 nm or observed (+ or --), metabolite M532c (Hydroxylation) / UV % at 280-290 nm or observed (+ or --), metabolite M563 (O-dealkylation + Glucuronidation) / UV % at 280-290 nm or observed (+ or --), metabolite M530b (Hydroxylation) / UV % at 280-290 nm or observed (+ or --), metabolite M530c (Hydroxylation): +: only detected by MS; --: not detected or trace; conditions: 10 μM; for UV % at 280-290 nm, Parent-T0 min: T0 min (normalized as 100%)
Procedure: (§1) Briefly, each test compound (final concentration of 10 μM containing 0.1% DMSO) was incubated with rat, dog, minipig, monkey, or human hepatocytes (final viable cell density of 1×10^6 cells/mL) at 37° C. with 5% CO2 in HI hepatocyte maintenance media (BIOIVT; Catalog #Z99009) for 120 minutes. Reactions were initiated by combining 200 μL of pre-warmed 2× dosing solution containing 20 μM test compound and 0.2% DMSO in HI maintenance media with 200 μL of pre-warmed hepatocyte solution containing 2×10^6 cells/mL in HI maintenance media. Samples were taken at 0 minutes (T0) and 120 minutes (T120) by quenching the reaction with 1200 μL acetonitrile. After quenching, the samples were sonicated for 2 minutes and then centrifuged at 1400 rpm for 5 minutes. A 1400-μL aliquot of the supernatant was evaporated under a stream of N2 until dry. The dried extracts were then reconstituted with 200 μL acetonitrile: H2O (1:3 v/v), vortexed for 2 minutes and centrifuged at 14000 rpm for 5 minutes. A 2-μL aliquot of the supernatant was injected onto a Xevo UPLC-UV-G2-S Q-Tof system (Waters®) with positive-ion electrospray ionization for analysis. Chromatographic separation was achieved on an Acquity UPLC®BEH C18 column (2.1×50 mm, 1.7 μm; Waters®) by gradient elution using varying proportions of mobile phase A (H2O with 0.1% formic acid) and mobile phase B (acetonitrile with 0.1% formic acid) at a constant flow rate of 400 μL/minute over a total run time of 10 minutes. LC-UV-MS extract ion chromatograms (EIC) of the T120 samples were compared to the T0 samples to identify the major putative metabolites which were named as Mm/z.

[3] = test system: monkey hepatocytes; test: In vitro metabolite profile in monkey hepatocytes; format: in vitro ADME; set-up: key to UV % at 280-290 nm or observed (+ or --), metabolite M387 (O-dealkylation) / UV % at 280-290 nm or observed (+ or --), metabolite M532b (Hydroxylation) / UV % at 280-290 nm or observed (+ or --), metabolite M532c (Hydroxylation) / UV % at 280-290 nm or observed (+ or --), metabolite M532d (Hydroxylation) / UV % at 280-290 nm or observed (+ or --), metabolite M563 (O-dealkylation + Glucuronidation) / UV % at 280-290 nm or observed (+ or --), metabolite M530b (Hydroxylation) / UV % at 280-290 nm or observed (+ or --), metabolite M530c (Hydroxylation) / UV % at 280-290 nm or observed (+ or --), metabolite M530d (Hydroxylation): +: only detected by MS; --: not detected or trace; conditions: 10 μM; for UV % at 280-290 nm, Parent-T0 min: T0 min (normalized as 100%)
Procedure: as §1

[4] = 120 min, relative to parent at T0

IV clearance 0.1 mpk ([1]; IV 0.1 mpk, ± one standard deviation): 24 ± 4 mL/min/kg
IV clearance 0.3 mpk ([1]; IV 0.3 mpk, ± one standard deviation): 23 ± 7 mL/min/kg
IV clearance 1 mpk ([1]; IV 1 mpk, ± one standard deviation): 24 ± 5 mL/min/kg
UV % at 280-290 nm or observed (+ or --), metabolite M387 (O-dealkylation) [2, 4]: 14.4%
UV % at 280-290 nm or observed (+ or --), metabolite M530b (Hydroxylation) [2, 4]: --
UV % at 280-290 nm or observed (+ or --), metabolite M530c (Hydroxylation) [2, 4]: +
UV % at 280-290 nm or observed (+ or --), metabolite M530e (Hydroxylation) [2, 4]: 2.4%
UV % at 280-290 nm or observed (+ or --), metabolite M563 (O-dealkylation + Glucuronidation) [2, 4]: +
UV % at 280-290 nm or observed (+ or --), metabolite M530d (Hydroxylation) [2, 4]: 1.6%
UV % at 280-290 nm, Parent-T120 min [2, 4]: 70.0%
UV % at 280-290 nm, Parent-T0 min [2]: 100.0%
UV % at 280-290 nm or observed (+ or --), metabolite M387 (O-dealkylation) [3, 4]: 4.8%
UV % at 280-290 nm or observed (+ or --), metabolite M530b (Hydroxylation) [3, 4]: --
UV % at 280-290 nm or observed (+ or --), metabolite M530c (Hydroxylation) [3, 4]: +
UV % at 280-290 nm or observed (+ or --), metabolite M530e (Hydroxylation) [3, 4]: 1.5%
UV % at 280-290 nm or observed (+ or --), metabolite M563 (O-dealkylation + Glucuronidation) [3, 4]: +
UV % at 280-290 nm or observed (+ or --), metabolite M530d (Hydroxylation) [3, 4]: --
UV % at 280-290 nm, Parent-T120 min [3, 4]: 85.7%
UV % at 280-290 nm, Parent-T0 min [3]: 100.0%
Compound: Cc1cnc(-c2ccnc(C(C)(C)O)n2)cc1-n1c(C)cc(OCc2ncc(F)cc2F)c(Cl)c1=O (atropisomer, axis not shown; (P)) [Example 1-H2, (P)-3-chloro-4-((3,5-difluoropyridin-2-yl)methoxy)-2′-(2-(2-hydroxypropan-2-yl)pyrimidin-4-yl)-5′,6-dimethyl-2H-[1,4′-bipyridin]-2-one]

clearance ([1]; 0.1 mg/kg, IV 0.1 mpk, ± one standard deviation, read-out: IV clearance 0.1 mpk): 16 ± 4 mL/min/kg
clearance ([1]; 0.3 mg/kg, IV 0.3 mpk, ± one standard deviation, read-out: IV clearance 0.3 mpk): 12 ± 3 mL/min/kg
clearance ([1]; 1 mg/kg, IV 1 mpk, ± one standard deviation, read-out: IV clearance 1 mpk): 9.5 mL/min/kg
UV % at 280-290 nm or observed (+ or --), metabolite M532b (Hydroxylation) [2, 4]: +
UV % at 280-290 nm or observed (+ or --), metabolite M532c (Hydroxylation) [2, 4]: +
UV % at 280-290 nm, Parent-T120 min [2, 4]: 81.1%
UV % at 280-290 nm, Parent-T0 min [2]: 100.0%
UV % at 280-290 nm or observed (+ or --), metabolite M387 (O-dealkylation) [3, 4]: +
UV % at 280-290 nm or observed (+ or --), metabolite M532b (Hydroxylation) [3, 4]: --
UV % at 280-290 nm or observed (+ or --), metabolite M532c (Hydroxylation) [3, 4]: +
UV % at 280-290 nm or observed (+ or --), metabolite M532d (Hydroxylation) [3, 4]: +
UV % at 280-290 nm, Parent-T120 min [3, 4]: 96.6%
UV % at 280-290 nm, Parent-T0 min [3]: 100.0%
Compound: [2H]C([2H])(Oc1cc(C)n(-c2cc(-c3ccnc(C(C)(C)O)n3)ncc2C)c(=O)c1Cl)c1ncc(F)cc1F (single isomer, unassigned) [Example 1-D2, (P)-3-Chloro-4-((3,5-difluoropyridin-2-yl)methoxy-d2)-2′-(2-(2-hydroxypropan-2-yl)pyrimidin-4-yl)-5′,6-dimethyl-2H-[1,4′-bipyridin]-2-one]
effect of deuterium substitution on clearance ([1]; IV, versus non-deuterated comparator Example 1-H2): clear and consistent reduction in clearance

Source: patent US12403141B2, “Deuterated MK2 pathway inhibitors and methods of using the same” (ACLARIS THERAPEUTICS, INC., priority 2019, dated 2025)
